# Source: patent US20060052458A1, “Preventive or remedy for intrauterine late embryonic development or pregnancy toxemia” (KISSEI PHARMACEUTICAL CO., LTD., priority 2003, published 2006)
# Marks after values point to notes of the source that are not given here.
# Assays:
# [1] = tested on: rat L-NAME-induced gestational toxicosis model; assay: Confirmation of effects on gestational toxicosis (Test Example 2); assay type: in vivo
# Text: A gestational toxicosis model was created as follows. A 17th -gestation day rat was anesthetized with ether. Then, the poll was incised approximately 10 mm to transplant in control group an osmotic pressure pump filled with L-NAME, and in the normal group, in the similar manner, an osmotic pressure pump filled with physiological saline in place of L-NAME. To the test group, in addition to the above pump, an osmotic pressure pump filled with bis(2-{[(2S)-2-({(2R)-2-hydroxy-2-[4-hydroxy-3-(2-hydroxyethyl)phenyl]ethyl}amino)-1,2,3,4-tetrahydronaphthalene-7-yl]oxy}-N,N-dimethylacetamide) monosulfate (the compound represented by the above formula (Ia)) was implanted. On the 20th gestation day, the mother animal was anesthetized with ether, and the fetus was extirpated. Severity of static gangrene at the tip of fetal extremities was examined, and the amount of maternal urinary albumin and plasma triglyceride level were measured.
# While bis(2-{[(2S)-2-({(2R)-2-hydroxy-2-[4-hydroxy-3-(2-hydroxyethyl)phenyl]ethyl)amino)-1,2,3,4-tetrahydronaphthalene-7-yl]oxy)-N,N-dimethylacetamide) monosulfate was dissolved in physiological saline and an osmotic pressure pump with the dose of 200 μg/day was inserted, L-NAME was dissolved in physiological saline to make 200 mg/mL for filling and an osmotic pressure pump with the dose of 48 mg/day was inserted.
# [2] = tested on: rat intrauterine growth retardation model induced by L-NAME; assay: Confirmation of effects on IUGR (Test Example 1); assay type: in vivo
# Text: IUGR model was created as follows in accordance with the method by Yallampalli et al. (Am J Obstet Gynecol, vol. 169: 1316-1320, 1993). A 17th-gestation day rat was anesthetized with ether. Then, the poll was incised approximately 10 mm to transplant in control group an osmotic pressure pump filled with L-NAME, and in the normal group, in the similar manner, an osmotic pressure pump filled with physiological saline in place of L-NAME. To the test group, in addition to the above pump, an osmotic pressure pump filled with bis(2-{[(2S)-2-({(2R)-2-hydroxy-2-[4-hydroxy-3-(2-hydroxyethyl)phenyl]ethyl}amino)-1,2,3,4-tetrahydronaphthalene-7-yl]oxy)-N,N-dimethylacetamide) monosulfate (the compound of the above formula (Ia)) was implanted. On the 20th gestation day, the mother animal was anesthetized with ether, and the fetus was extirpated and weighed. Maternal blood pressure was measured before ether anesthesia on the 17th and 20th gestation days. In statistical analysis, comparisons of control group with normal group or test group were conducted in F-test for variance. When there was equal variance, unpaired t-tests were performed. When there was unequal variance, Welch's test was performed.
# Bis(2-{[(2S)-2-({(2R)-2-hydroxy-2-[4-hydroxy-3-(2-hydroxyethyl)phenyl]ethyl}amino)-1,2,3,4-tetrahydronaphthalene-7-yl]oxy}-N,N-dimethylacetamide) sulfate was dissolved in physiological saline and an osmotic pressure pump with the dose of 50 μg/day was inserted, while L-NAME was dissolved in physiological saline to make 50 mg/mL for filling and an osmotic pressure pump with the dose of 12 mg/day was inserted.
# [3] = L-NAME 48 mg/day + compound 200 μg/day by osmotic pump from gestation day 17, examined on day 20
# [4] = L-NAME 48 mg/day + compound 200 μg/day by osmotic pump, gestation day 20
structure (smiles),measurement,setting,value
"CN(C)C(=O)COc1ccc2c(c1)C[C@@H](NC[C@H](O)c1ccc(O)c(CCO)c1)CC2 [formula (Ia), bis(2-{[(2S)-2-({(2R)-2-hydroxy-2-[4-hydroxy-3-(2-hydroxyethyl)phenyl]ethyl}amino)-1,2,3,4-tetrahydronaphthalene-7-yl]oxy}-N,N-dimethylacetamide) monosulfate]",Static gangrene in the tip of extremities (incidence %),[1]; [3],8%
same,The number of static gangrene in the tip of extremities/The number of fetuses,[1]; [3],16/203
same,Maternal plasma triglyceride level,[1]; [4],143 µg/mL
same,Maternal urinary albumin level,[1]; [4],222.1# μg/mL
same,Change in maternal blood pressure after administration (effect on maternal heart),"[2]; 50 μg/day by osmotic pump, gestation days 17 to 20",no change in maternal blood pressure
same,Mean blood pressure of dam,"[2]; Day 20 of gestation, L-NAME 12 mg/day + compound 50 μg/day by osmotic pump",102.5 mmHg
same,Fetal body weight,"[2]; pregnant rat, L-NAME 12 mg/day + compound 50 μg/day by osmotic pump from gestation day 17, fetus weighed on day 20",3550 mg
